How the values were obtained:
[1] = Cleavage of boronic ester/acid protected compounds by H2O2 (UV-Vis, rate constant, HPLC); assay type: physicochemical; conditions: for rate constant of conversion with an excess of H2O2: pseudo-first order conditions, HEPES buffer; for k, pseudo first-order rate constants calculated with an excess of H2O2: 50 μM in HEPES buffer pH 7.5, room temperature
Experimental: (§1) Absorption spectra of compounds B1-B16 were taken on a Perkin-Elmer Lambda 25 UV-visible spectrophotometer. To a 1.0 mL solution at 0.05 mM concentration in HEPES buffer (50 mM, pH 7.5) was added H2O2 (10 uL (0.09 M) in HEPES for compounds B1-B12 and B14-B16, 10 uL (0.9 M) in HEPES for compound B3, and 2.8 uL (0.09 M) in HEPES for compound B13). Spectra were monitored over time at room temperature. Absorption spectra of compounds B17-B21 were taken on a Perkin-Elmer Lambda 25 UV-visible spectrophotometer. To a 1.0 mL solution at 0.05 mM concentration of compounds 1-7 in HEPES buffer (50 mM, pH=7.5) was added H2O2 (10 uL, 0.09 M in HEPES) or KO2 (0.10 mM) with catalase (5 U). Hydrolytic stability was measured by monitoring samples of B19-B21 in HEPES buffer for a 24 h time period. Spectra were monitored over time at room temperature.
The pseudo-first order rate constant was calculated by monitoring the absorption spectra over time in the presence of excess hydrogen peroxide. To a 1.0 mL solution of compounds B1-B3 and B10-B14 in HEPES buffer (50 mM, pH 7.5) at 50 μM was added H2O2 to final concentrations of 150 μM, 250 μM, 500 μM, 750 μM, and 900 μM. Spectra were monitored over 15-30 min at room temperature with at least 50 spectra recorded. The change in absorption at 302 nm for B1-B3, 272 nm for B10, 312 nm for B11, 268 for B12, 306 nm for B13, and 303 nm for B14 were monitored. For compounds B1-B3 and B10-B11, the rate constant (kobs) was found from monitoring the appearance of the monitored absorption peak by plotting the linear slope of ln [(A∞−At)/(A∞)] vs. time (where A∞ is the absorbance of a 50 μM sample of the methyl salicylate for B1-B3, maltol for B10, and 1,2-HOPO for B11). For compounds B12-B14 the rate constant (kobs) was found from monitoring the disappearance of the monitored absorption peak by plotting the linear slope of ln [(A−AZBG)/(A0−AZBG)] vs. time (where AZBG is the absorbance of a 50 μM sample of the ZBG and A0 is the initial absorbance of […]).^3 The rate of conversion was determined from the slope of the line of kobs vs. [H2O2]. The pseudo-first order rate constant was calculated following literature procedure.^[15] To a 1.0 mL solution of compounds B19-B21 in HEPES buffer at 50 μM was added H2O2 to final concentrations of 150 μM, 250 μM, 500 μM, 750 μM, and 900 μM. Spectra were monitored over 15-30 min at room temperature with at least 50 spectra recorded. The change in absorption at 292 nm for B19 and 252 nm for B20 and B21 were monitored. The rate constant (kobs) was found from the linear slope of ln [(A−AZBG)/(A0−AZBG)] vs. time (where AZBG is the absorbance of a 50 μM sample of the ZBG and A0 is the initial absorbance of B19-B21). The rate of conversion was determined from the slope of the line of kobs vs. [H2O2].
Analytical HPLC was performed on a HP Series 1050 system equipped with a Vydac® C18 reverse phase column (218 TP, 250×4.6 mm, 5 μm). […] Starting with 95% A and 5% B, an […] gradient was run for 15 min to a final solvent mixture of 5% A and 95% B, which was held for 5 min before ramping back down to 95% A and 5% B in 2 min and holding for an additional 4 min. Compounds were prepared in HEPES buffer (50 mM, pH 7.5) at a concentration of 1 mM. Retention times of compounds were determined under identical HPLC conditions prior to and after reaction with H2O2. LC-MS(+) was performed on compounds B6, B15 and B16 to confirm cleavage of the boronic ester to the phenolic moiety.

[2] = Hydrolytic stability of boronic ester compounds in HEPES buffer; assay type: physicochemical; conditions: 24 h time period
Experimental: as §1

[3] = Stability of protected ZBGs towards KO2 with catalase; assay type: physicochemical; conditions: KO2 0.10 mM and catalase 5 U, 60 min
Experimental: as §1

[4] = Solubility in buffered solution / water; assay type: physicochemical; conditions: relative to the parent analog
[5] = molecular target: T1, MMP-9 (catalytic domain, human, recombinant) (Homo sapiens, UniProt P14780); test: MMP-9 inhibition assay of boronic ester proinhibitors (IC50; activation with H2O2); assay type: biochemical; conditions: active inhibitor; read-out: IC50 against MMP-9
T1 construct: MMP-9 (catalytic domain, human, recombinant); purchased BIOMOL International
T1 sequence (P14780 107-444 limits assumed): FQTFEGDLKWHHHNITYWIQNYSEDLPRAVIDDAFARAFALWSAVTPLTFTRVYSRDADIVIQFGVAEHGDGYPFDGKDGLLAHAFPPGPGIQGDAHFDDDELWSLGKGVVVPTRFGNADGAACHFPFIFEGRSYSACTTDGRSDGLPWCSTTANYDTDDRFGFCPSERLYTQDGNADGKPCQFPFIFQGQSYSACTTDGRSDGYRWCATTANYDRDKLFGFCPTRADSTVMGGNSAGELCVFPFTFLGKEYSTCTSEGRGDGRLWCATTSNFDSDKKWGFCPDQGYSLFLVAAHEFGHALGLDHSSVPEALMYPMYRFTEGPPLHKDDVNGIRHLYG
Experimental: MMP-9 (catalytic domain, human, recombinant) and MMP-12 (catalytic domain, human, recombinant) were purchased from Enzo Life Sciences. The assays were carried out in 96-well plates using a Bio-Tek Flx 800 plate reader. IC50 values were obtained for proinhibitors B17 and B18 against MMP-9 and MMP-12. Serial dilutions of the compounds dissolved in DMSO were incubated at 37° C. for 30 minutes with 20 μL of the appropriate MMP (0.45 U/mL for MMP-9 and 0.35 U/mL for MMP-12) in MMP assay buffer (50 mM HEPES, 10 mM CaCl2, 0.10% Brij-35, pH 7.5), for a total volume of 99 pt. The reaction was initiated by the addition of 1 μL (400 μM) of the fluorescent substrate (Mca-Pro-Leu-Gly-Leu-Dpa-Ala-Arg-NH2 where Mca=(7-methoxycoumarin-4-yl)-acetyl and Dpa=N-3-(2,4-dinitrophenyl)-L-α-β-diaminopropionyl)) and kinetic activity was measured every minute for 20 min with excitation and emission wavelengths at 335 nm and 405 nm, respectively. Measurements were performed in duplicate. The percent inhibition was plotted versus the inhibitor concentration. A linear fit of the data for each experiment gives the IC50 value of the inhibitor where y=50%.
MMP activity in the presence of H2O2 was evaluated with both MMP-9 and MMP-12 with 1 h of activation at concentrations close to their IC50 values. Using the calculated rate constants for the protected ZBGs B19 and B20, it was determined that 1 h of activation time for each proinhibitor with 100 μM H2O2 will provide enough 1,2-HOPO-2 or PY-2 to inhibit the MMPs at 50%. For example, for proinhibitor B17 with MMP-9, if the rate=k[B17][H2O2] and k=3.9 M^−1s^−1, [B17]=10 μM, and [H2O2]=100 μM, the rate of conversion would be 3.9×10^−9 M/s. Therefore, activation for 1 h would release 14 μM 1,2-HOPO-2, or enough inhibitor to provide approximately 50% inhibition of MMP-9 (IC50 value for 1,2-HOPO-2 against MMP-9 is ˜6 μM).
In each well, 1 μL of proinhibitors B17 and B18 and the inhibitors 1,2-HOPO-2 and PY-2 in DMSO (1 mM for MMP-9 or 5 μM for MMP-12) were incubated for 1 h at 37° C. with 10 μL H2O2 (1 mM in HEPES buffer, pH 7.5) in MMP assay buffer for a total volume of 79 pt. […] After activation of the proinhibitors, 20 μL of the appropriate MMP (0.45 U/mL for MMP-9 and 0.35 U/mL for MMP-12) was added and incubated for an additional 30 min. The reaction was initiated by the addition of 1 pt (400 μM) of the fluorescent substrate and kinetic activity was measured every minute for 20 min with excitation and emission wavelengths at 335 nm and 405 nm, respectively. Enzyme activity with inhibitor was calculated with respect to the control experiment (no inhibitor present). Measurements were performed in duplicate in two independent experiments.

[6] = molecular target: MMP-3 (Homo sapiens, UniProt P08254); conditions: read-out: IC50 against MMP-3; cited from earlier work
Chain of MMP-3 (P08254 100-477, species assumed): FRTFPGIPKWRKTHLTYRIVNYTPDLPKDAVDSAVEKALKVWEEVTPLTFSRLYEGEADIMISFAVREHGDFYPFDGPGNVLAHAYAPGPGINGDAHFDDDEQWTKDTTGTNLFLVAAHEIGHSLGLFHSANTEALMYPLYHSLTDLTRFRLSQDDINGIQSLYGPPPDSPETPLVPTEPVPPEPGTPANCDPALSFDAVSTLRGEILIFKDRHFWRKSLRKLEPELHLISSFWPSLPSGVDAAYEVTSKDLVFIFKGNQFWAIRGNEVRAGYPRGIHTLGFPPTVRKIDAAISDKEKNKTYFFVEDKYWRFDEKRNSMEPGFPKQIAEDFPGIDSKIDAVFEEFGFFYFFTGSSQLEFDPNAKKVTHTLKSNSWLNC

[7] = molecular target: MMP-8 (Homo sapiens, UniProt P22894); conditions: read-out: IC50 against MMP-8; cited from earlier work
Chain of MMP-8 (P22894 101-467): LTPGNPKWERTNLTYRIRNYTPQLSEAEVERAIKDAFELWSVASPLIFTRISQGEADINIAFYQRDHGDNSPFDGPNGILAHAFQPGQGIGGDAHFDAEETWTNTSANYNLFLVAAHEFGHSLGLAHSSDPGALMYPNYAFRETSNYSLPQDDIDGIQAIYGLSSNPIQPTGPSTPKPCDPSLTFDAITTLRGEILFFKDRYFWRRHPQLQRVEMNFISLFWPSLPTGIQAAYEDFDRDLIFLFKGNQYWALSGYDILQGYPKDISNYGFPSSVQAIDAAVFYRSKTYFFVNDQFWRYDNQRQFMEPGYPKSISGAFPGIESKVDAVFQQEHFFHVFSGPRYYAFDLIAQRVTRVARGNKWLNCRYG

[8] = molecular target: MMP-12 (Homo sapiens, UniProt P39900); conditions: read-out: IC50 against MMP-12; cited from earlier work
Chain of MMP-12 (P39900 106-470): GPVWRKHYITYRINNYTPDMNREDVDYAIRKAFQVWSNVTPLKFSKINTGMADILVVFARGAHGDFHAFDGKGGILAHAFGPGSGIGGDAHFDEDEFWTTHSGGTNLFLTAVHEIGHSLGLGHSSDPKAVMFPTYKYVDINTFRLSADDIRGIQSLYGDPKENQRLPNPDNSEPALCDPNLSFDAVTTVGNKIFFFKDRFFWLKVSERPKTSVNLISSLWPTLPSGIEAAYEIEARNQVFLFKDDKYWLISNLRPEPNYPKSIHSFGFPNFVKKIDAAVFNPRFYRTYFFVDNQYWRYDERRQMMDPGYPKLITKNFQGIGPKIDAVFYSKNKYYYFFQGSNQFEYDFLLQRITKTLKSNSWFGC

[9] = Hydrolytic stability of sulfonate esters in HEPES buffer; assay type: physicochemical; conditions: in 6 h
Experimental: (§2) Absorption spectra of compounds were taken on a Perkin-Elmer Lambda 25 UV-Visible Spectrophotometer. To a 1.0 mL solution at 0.05 mM concentration of each compound in HEPES buffer (50 mM, pH 7.5) was added H2O2 (10 μL, 0.09M in HEPES) and absorption spectra were monitored over time at room temperature. Hydrolytic stability was measured by monitoring each sample in HEPES buffer over a 24 hour time period.

[10] = Cleavage of sulfonate ester PZBGs and proMMPi by H2O2 (UV-Vis, rate constant, HPLC); assay type: physicochemical; conditions: 50 μM in HEPES buffer, room temperature
Experimental: as §2
The pseudo-first order rate constant was calculated following literature procedure. To a 1.0 mL solution of compounds PZBG-1a, PZBG-1b, PZBG-1e, PZBG-5a, and PZBG-5b in HEPES buffer at 50 μM was added H2O2 to final concentrations of 150 μM, 250 μM, 500 μM, 750 μM, and 900 μM. Spectra were monitored over 15-30 min at room temperature with at least 50 spectra recorded at every concentration. The change in absorption at 298 nm for PZBG-1a and PZBG-1b were monitored, while the change in absorption at 288 nm was recorded for PZBG-1e, and 310 nm for PZBG-5a and PZBG-5b. The rate constant (kobs) was found from the linear slope of ln [(A−AZBG)/(Ao−AZBG)] vs. time where AZBG is the absorbance of a 50 μM sample of the ZBG or full-length inhibitor and AO is the initial absorbance of PZBG-1a, PZBG-1b, PZBG-1e, PZBG-5a, and PZBG-5b. The rate of conversion was determined from the slope of the line of kobs vs. [H2O2].
Analytical HPLC was performed on a HP Series 1050 system equipped with a Vydac® C18 reverse phase column (218 TP, 250×4.6 mm, 5 μm). […] Starting with 95% A and 5% B, an […] gradient was run for 15 min to a final solvent mixture of 5% A and 95% B, which was held for 5 min before ramping back down to 95% A and 5% B in 2 min and holding for an additional 4 min. Compounds ZBG-1a and PZBG-1a were prepared in HEPES buffer (50 mM, pH 7.5) at a concentration of 1 mM and retention times were determined. To evaluate cleavage by H2O2, a 1 mM solution of PZBG-1a in HEPES buffer was reacted with a 20-fold excess of H2O2 before analyzing under identical HPLC conditions as before.

SMILES | rate constant of conversion with an excess of H2O2 [1] | solution stability in buffer [2] | stability towards KO2 [3] | k, pseudo first-order rate constants calculated with an excess of H2O2 [1] | solubility [4] | other results
Cc1occc(=O)c1OCc1ccc(B2OC(C)(C)C(C)(C)O2)cc1 [Compound B20, 2-methyl-3-((4-(4,4,5,5-tetramethyl-1,3,2-dioxaborolan-2-yl)benzyl)oxy)-4H-pyran-4-one] | 2.9 M⁻¹ s⁻¹ | stable | stable towards KO2 |  |  | 
CC1(C)OB(c2ccc(COn3ccccc3=O)cc2)OC1(C)C [Compound B19, 1-((4-(4,4,5,5-tetramethyl-1,3,2-dioxaborolan-2-yl)benzyl)oxy)pyridin-2(1H)-one] | 4.0 M⁻¹ s⁻¹ | stable | stable towards KO2 |  |  | 
O=c1ccccn1OCc1ccc(B(O)O)cc1 [Compound B11, (4-(((2-Oxopyridin-1(2H)-yl)oxy)methyl)phenyl)boronic acid] | 5.9 M⁻¹ s⁻¹ |  |  | 5.9 ± 0.2 M⁻¹ s⁻¹ | improved solubility | 
O=C(NCc1ccc(-c2ccccc2)cc1)c1cccc(=O)n1O [1,2-HOPO-2, N-(Biphenyl-4-ylmethyl)-1-hydroxy-6-oxo-1,6-dihydropyridine-2-carboxamide] |  |  |  |  |  | IC50 [5]: ~6000 nM; IC50 [6]: < 100 nM; IC50 [7]: < 100 nM; IC50 [8]: < 100 nM
Cc1occc(=O)c1OCc1ccc(B(O)O)cc1 [Compound B10, (4-(((2-Methyl-4-oxo-4H-pyran-3-yl)oxy)methyl)phenyl)boronic acid] |  |  |  | 3.1 ± 0.5 M⁻¹ s⁻¹ | improved solubility | 
O=C(O)c1ccc(S(=O)(=O)On2ccccc2=O)cc1 [PZBG-1e, 4-(((2-Oxopyridin-1(2H)-yl)oxy)sulfonyl)benzoic acid] |  |  |  |  | substantial increase in solubility | cleavage in buffer [9]: ~50%; pseudo-first order rate constant with an excess of H2O2 [10]: 1.3 M⁻¹ s⁻¹

From patent US8889638B2, “Stimulus-triggered prodrugs” (The Regents of the University of California, priority 2010, dated 2014)
